The term pEC50 denotes the negative decadic logarithm of the EC50, by convention in mol/L. A lower pEC50 goes with a high EC50.

Here are results for 20 compounds from patent publication US20130203662A1, “Mini-Hepcidin Peptides and Methods of Using Thereof” (priority 2008, published 2013).

pEC50: −log10 of the molar value. Like-named read-outs stand apart in the source and are kept apart here. Bridge positions count the residues as written; N and C are the ends. Square brackets hold non-standard residues; d marks the D form. Ends that are not written are not given here. Peptide text beside a SMILES is read from it. * marks the point of attachment. Bip = N[C@@H](Cc1ccc(-c2ccccc2)cc1)C(=O)O; Oic = O=C(O)[C@@H]1C[C@@H]2CCCC[C@@H]2N1; X3 = NC(=O)C[C@H](N*)C(c1ccccc1)c1ccccc1; Dip = N[C@H](C(=O)O)C(c1ccccc1)c1ccccc1; β3hF = N[C@H](CC(=O)O)Cc1ccccc1; β3hP = O=C(O)C[C@@H]1CCCN1; StBu = CC(C)(C)S* Bounds are passed on as bounds.

The subject of one assay is C57/B16J mice. Description: Serum iron assay in mice after peptide administration. It counts as in vivo.
Assay [1] concerns the target T1, ferroportin fused to green fluorescent protein (ECR293/Fpn-GFP cells) (Mus musculus, UniProt Q9JHI9).
T1 sequence (Q9JHI9 1-570): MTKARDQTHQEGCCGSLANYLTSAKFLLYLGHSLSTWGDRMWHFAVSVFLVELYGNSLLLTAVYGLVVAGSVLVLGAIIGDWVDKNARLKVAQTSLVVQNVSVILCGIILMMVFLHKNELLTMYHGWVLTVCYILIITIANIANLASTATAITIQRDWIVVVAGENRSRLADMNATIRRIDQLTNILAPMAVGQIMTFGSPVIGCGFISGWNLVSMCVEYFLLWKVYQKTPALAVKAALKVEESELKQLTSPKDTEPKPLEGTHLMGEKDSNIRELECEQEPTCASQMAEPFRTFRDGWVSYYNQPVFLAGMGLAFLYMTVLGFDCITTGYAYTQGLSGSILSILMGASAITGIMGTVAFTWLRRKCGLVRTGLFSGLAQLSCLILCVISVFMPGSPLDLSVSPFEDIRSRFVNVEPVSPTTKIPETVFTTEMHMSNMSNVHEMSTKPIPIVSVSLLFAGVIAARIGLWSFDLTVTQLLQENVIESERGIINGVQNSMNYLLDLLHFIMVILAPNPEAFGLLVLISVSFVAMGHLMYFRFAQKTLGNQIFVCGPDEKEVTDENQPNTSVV
Description: Flow cytometry of ferroportin-GFP internalization and degradation in ECR293/Fpn-GFP cells. In kind it is cell-based. The settings on record: for pEC50 / DC50: concentration eliciting 50% of maximal loss of fluorescence generated by reference Hep25, 24 hours; for relative hepcidin activity of substitutions in Hep25: Hep25 variants, FIG. 1, 2A, 2B. How it is done: In vitro activity may be measured by the dose-dependent loss of fluorescence of cells engineered to display ferroportin fused to green fluorescent protein as in Nemeth et al. (2006) Blood 107:328-33. […]
FLOW CYTOMETRY. The activity of peptides of the present invention was measured by flow cytometry as previously described. See Nemeth et al. (2006) Blood 107:328-333, which is herein incorporated by reference. ECR293/Fpn-GFP, a cell line stably transfected with a ponasterone-inducible ferroportin construct tagged at the C-terminus with green fluorescent protein was used. See Nemeth et al. (2004) Science 306:2090-2093, which is herein incorporated by reference. Briefly, the cells were plated on poly-D-lysine coated plates in the presence of 20 μM FAC, with or without 10 μM ponasterone. After 24 hours, ponasterone was washed off, and cells were treated with peptides for 24 hours. Cells were then trypsinized and resuspended at 1×10^6 cells/ml, and the intensity of green fluorescence was analyzed by flow cytometry. […] Cells not induced with ponasterone to express Fpn-GFP were used to establish a gate to exclude background fluorescence. Cells induced with ponasterone, but not treated with any peptides, were used as the positive control. Each peptide was tested over the range of concentrations (0, 0.01, 0.03, 0.1, 0.3, 1, 3 and 10 μM). Each peptide treatment was repeated independently 3 to 6 times.
A general note: A flow cytometer gives signals particle by particle.

Setting [2] is: read-out: EC50 (the source's name).

Description for C57/B16J mice: Serum iron assay. The decrease in serum iron after peptide administration is the principal measure of hepcidin activity. Thus, as provided herein, the hepcidin activity of selected peptides of the present invention were assayed in vivo by measuring serum iron in test subjects. […] Two weeks before the experiment, the mice were switched to a diet containing about 2-4 ppm iron (Harlan Teklad, Indianapolis, Ind.) in order to suppress endogenous hepcidin. Peptide stocks were diluted to desired concentrations in sterile phosphate buffered saline (PBS) or other diluents as described next. […] Mice were sacrificed 4 hours later, blood was collected by cardiac puncture, and serum was separated using MICROTAINER tubes (Becton Dickinson, Franklin Lakes, N.J.). Serum iron was determined by using a colorimetric assay (Diagnostic Chemicals, Oxford, Conn.), which was modified for the microplate format so that 10 μl serum was used per measurement. The results were expressed as the percentage of decrease in serum iron when compared with the average value of serum iron levels in PBS-treated mice.

In the case of `CCCCCCCCCCCCCCCC(=O)NCCOCCOCCOCCOCCOCCOCCOCCOCCOCCOCCOCCOCCC(=O)N[C@H](Cc1ccccc1)C(=O)N[C@@H](C(=O)N[C@H](CS)C(=O)N[C@@H](C(=O)N1CCC[C@@H]1C(=O)N[C@H](Cc1ccccc1)C(=O)N[C@H](Cc1c[nH]cn1)C(=O)N[C@@H](C(=O)N[C@H](CC(=O)O)C(N)=O)[C@H](C)O)[C@H](C)CC)[C@H](C)CC` [Pr27], the serum iron result is on record as “serum iron decrease comparable to that caused by i.p. administration of 20 nmoles Hep25” with C57/B16J mice (i.p., 20 nmoles in PBS, 4 hours); “serum iron decrease similar to that caused by i.p. administration of 20 nmoles Hep25” in the assay with C57/B16J mice (i.p., 20 nmoles in liposomal solution, 4 hours); “even greater decrease in serum iron concentrations” with C57/B16J mice (i.p., 200 nmoles in PBS, 4 hours); “caused a decrease in serum iron in mice” in the assay on C57/B16J mice (oral by gavage, 200 nmoles in cremophore EL solution, vs PBS in same formulation).
In the case of `CC[C@H](C)[C@H](NC(=O)[C@H](CS)NC(=O)[C@@H](NC(=O)[C@@H]1CCCN1C(=O)[C@H](Cc1ccccc1)NC(=O)[C@H](Cc1c[nH]cn1)NC(=O)[C@@H](NC(=O)[C@@H](N)CC(=O)O)[C@@H](C)O)[C@@H](C)CC)C(=O)N[C@H](CC(=O)N1CCC[C@@H]1C(=O)N1CCC[C@H]1CC(=O)N[C@@H](CCCNC(=N)N)C(N)=O)Cc1ccccc1` [Pr22] (H-DTHFPICI[β3hF][dP][β3hP]R-NH2), in assay [1], the pEC50 was 6.22.
With `CC[C@H](C)[C@H](NC(=O)[C@@H]1CCCN1C(=O)[C@H](Cc1ccccc1)NC(=O)[C@H](Cc1c[nH]cn1)NC(=O)[C@@H](NC(=O)[C@@H](N)CC(=O)O)[C@@H](C)O)C(=O)N[C@@H](C(=O)N[C@H](C(=O)N[C@@H](Cc1ccccc1)C(N)=O)[C@@H](C)CC)C(C)(C)S` [(D)Pen], in assay [1] (setting [2]), the DC50 worked out at 3000 nM.
Turning to “T2A: Hep25 with alanine substitution of residue T2 (DAHFPICIFCCGCCHRSKCGMCCKT)”, the “relative hepcidin activity of substitutions in Hep25” value in assay [1] was “did not substantially impact hepcidin activity”.
Turning to `CC[C@H](C)[C@H](NC(=O)[C@H](CS)NC(=O)[C@@H](NC(=O)[C@@H]1C[C@@H]2CCCC[C@@H]2N1C(=O)[C@@H](NC(=O)[C@H](Cc1c[nH]cn1)NC(=O)[C@@H](NC(=O)[C@@H](N)CC(=O)O)[C@@H](C)O)C(c1ccccc1)c1ccccc1)[C@@H](C)CC)C(=O)N[C@@H](Cc1ccccc1)C(N)=O` [Pr44] (H-DTH[Dip][Oic]ICIF-NH2; N-terminus assumed), in assay [1] (setting [2]), the DC50 was 30 nM.
Turning to `CC[C@H](C)[C@H](NC(=O)[C@@H](NC(=O)[C@@H](NC(=O)[C@@H]1CCCN1C(=O)[C@H](Cc1ccccc1)NC(=O)[C@H](Cc1c[nH]cn1)NC(=O)[C@@H](NC(=O)[C@@H](N)CC(=O)O)[C@@H](C)O)[C@@H](C)CC)C(C)(C)S)C(=O)N[C@@H](Cc1ccccc1)C(N)=O` [Pen], the DC50 in assay [1] (setting [2]) was 700 nM.
Same read-out and setting: the same measure for HFPIC-NH2 [Hep5]: above 10000 nM; for `CC[C@H](C)[C@H](NC(=O)[C@H](CS)NC(=O)[C@@H](NC(=O)[C@@H]1CCCN1C(=O)C[C@H](Cc1ccccc1)NC(=O)[C@H](Cc1c[nH]cn1)NC(=O)[C@@H](NC(=O)[C@@H](N)CC(=O)O)[C@@H](C)O)[C@@H](C)CC)C(=O)N[C@@H](Cc1ccccc1)C(N)=O` [F4bhPhe]: 700 nM.
`CC[C@H](C)[C@H](NC(=O)[C@H](CS)NC(=O)[C@@H](NC(=O)[C@@H]1CCCN1C(=O)[C@@H](NC(=O)[C@H](Cc1c[nH]cn1)NC(=O)[C@@H](NC(=O)[C@@H](N)CC(=O)O)[C@@H](C)O)C(c1ccccc1)c1ccccc1)[C@@H](C)CC)C(=O)N[C@H](C(N)=O)C(c1ccccc1)c1ccccc1` [Pr39] (H-DTH[Dip]PICI[Dip]-NH2) gave a pEC50 in assay [1] of 7.46.
As for “F4Y: Hep25 with F4 substituted by tyrosine (DTHYPICIFCCGCCHRSKCGMCCKT)”, in assay [1], the “relative hepcidin activity of substitutions in Hep25” value is given as “substantial loss of hepcidin activity”.
In the case of DTHAPICIF-NH2 [Hep9F4A], the DC50 in assay [1] (setting [2]) is above 3000 nM.
On to `CC[C@H](C)[C@H](NC(=O)[C@@H]1CSSC[C@H](N)C(=O)N[C@@H](Cc2c[nH]cn2)C(=O)N[C@@H](Cc2ccccc2)C(=O)N2CCC[C@H]2C(=O)N[C@@H]([C@@H](C)CC)C(=O)N1)C(=O)N[C@@H](Cc1ccccc1)C(N)=O` [Cyc-2] (H-CHFPICIF-NH2; disulfide 1-6), for which, in assay [1] (read-out: EC50), the DC50 was above 10000 nM.
Consider `CC[C@H](C)[C@H](NC(=O)[C@H](CS)NC(=O)[C@@H](NC(=O)[C@@H]1CCCN1C(=O)[C@H](Cc1ccccc1)NC(=O)[C@H](Cc1c[nH]cn1)NC(=O)[C@@H](NC(=O)[C@@H](N)CC(=O)O)[C@@H](C)O)[C@@H](C)CC)C(=O)N[C@@H](Cc1ccccc1)C(=O)N1CCC[C@@H]1C(=O)N1CCC[C@H]1C(=O)N[C@@H](CCCCN)C(N)=O` [Pr13], for which the DC50 in assay [1] (setting [2]) was 100 nM.
`CC[C@H](C)[C@H](NC(=O)[C@H](CS)NC(=O)[C@@H](NC(=O)[C@@H]1CCCN1C(=O)[C@H](Cc1ccccc1)NC(=O)[C@H](Cc1c[nH]cn1)NC(=O)[C@@H](NC(=O)[C@@H](N)CC(=O)O)[C@@H](C)O)[C@@H](C)CC)C(=O)N[C@H](CC(=O)N1CCC[C@@H]1C(=O)N1CCC[C@H]1C(=O)N[C@@H](CCCCN)C(N)=O)Cc1ccccc1` [Pr19] (H-DTHFPICI[β3hF][dP]PK-NH2): the pEC50 in assay [1] is 6.15.
On the same count and under the same terms, the same measure for `CC[C@H](C)[C@H](NC(=O)[C@H](CS)NC(=O)[C@@H](NC(=O)[C@@H]1CCCN1C(=O)[C@H](Cc1ccccc1)NC(=O)[C@H](Cc1c[nH]cn1)NC(=O)[C@@H](NC(=O)[C@@H](N)CC(=O)O)[C@@H](C)O)[C@@H](C)CC)C(=O)N[C@@H](CC(N)=O)C(c1ccccc1)c1ccccc1` [F9bhDpa] (H-DTHFPICI-X3): 7.00.
Take `CC[C@H](C)[C@H](NC(=O)[C@H](CS)NC(=O)[C@@H](NC(=O)[C@@H]1CCCN1C(=O)[C@H](Cc1ccccc1)NC(=O)[C@H](Cc1c[nH]cn1)NC(=O)[C@@H](NC(=O)[C@@H](N)CC(=O)O)[C@@H](C)O)[C@@H](C)CC)C(=O)N[C@H](CC(=O)N1CCC[C@@H]1C(=O)N1CCC[C@H]1CC(=O)N[C@@H](CCCCN)C(N)=O)Cc1ccccc1` [Pr21] (H-DTHFPICI[β3hF][dP][β3hP]K-NH2): the DC50 in assay [1] (setting [2]) came to 500 nM.
For the compound `CC[C@H](C)[C@H](NC(=O)[C@H](CS)NC(=O)[C@@H](NC(=O)[C@@H]1CCCN1C(=O)[C@H](Cc1ccccc1)NC(=O)[C@H](Cc1c[nH]cn1)NC(=O)[C@@H](NC(=O)[C@@H](N)CC(=O)O)[C@@H](C)O)[C@@H](C)CC)C(=O)N[C@@H](Cc1ccccc1)C(=O)N1CCC[C@@H]1C(=O)N1CCC[C@H]1C(=O)N[C@@H](CCCNC(=N)N)C(N)=O` [Pr14], the DC50 in assay [1] (setting [2]) was 90 nM.
`CC[C@H](C)[C@H](NC(=O)[C@H](CS)NC(=O)[C@@H](NC(=O)[C@@H]1CCCN1C(=O)[C@H](Cc1ccccc1)NC(=O)[C@H](Cc1c[nH]cn1)NC(=O)[C@@H](NC(=O)[C@@H](N)CC(=O)O)[C@@H](C)O)[C@@H](C)CC)C(=O)N[C@@H](Cc1ccccc1)C(=O)N1CCC[C@H]1CC(=O)N1CCC[C@H]1C(=O)N[C@@H](CCCNC(=N)N)C(N)=O` [Pr16] had a pEC50 in assay [1] of 7.30.
`CC[C@H](C)[C@H](NC(=O)[C@H](CS)NC(=O)[C@@H](NC(=O)[C@@H]1CCCN1C(=O)[C@H](Cc1ccc(-c2ccccc2)cc1)NC(=O)[C@H](Cc1c[nH]cn1)NC(=O)[C@@H](NC(=O)[C@@H](N)CC(=O)O)[C@@H](C)O)[C@@H](C)CC)C(=O)N[C@@H](Cc1ccccc1)C(N)=O` [F4Bip] (H-DTH[Bip]PICIF-NH2; N-terminus assumed): the DC50 in assay [1] (setting [2]) was 150 nM.
On the same count and under the same terms, the same measure for `CC[C@H](C)[C@H](NC(=O)[C@H](CSSC(C)(C)C)NC(=O)[C@@H](NC(=O)[C@@H]1CCCN1C(=O)[C@H](C)NC(=O)[C@H](Cc1c[nH]cn1)NC(=O)[C@@H](NC(=O)[C@@H](N)CC(=O)O)[C@@H](C)O)[C@@H](C)CC)C(=O)N[C@@H](Cc1ccccc1)C(N)=O` [Hep9C7-SStBut] (H-DTHAPIC(StBu)IF-NH2): 700 nM.
